The record followed here is US9457033B2, “Steroid alkaloids and uses thereof as antimicrobial agents against electron transport-deficient microbes and as potentiators for antimicrobial agents against pathogenic bacteria” (priority 2011, dated 2016).

For experiment [1], the system named is colonies isolated from S. aureus ATCC 29213 cultures exposed to gentamicin. As to the kind of experiment: Gentamicin susceptibility of colonies isolated from 24 h-cultures exposed to gentamicin. The class given is cell-based, Staphylococcus aureus. The procedure:
Accordingly, colonies isolated from 24 h-cultures exposed to gentamicin were often normal-growing bacteria with a decreased susceptibility to gentamicin (MIC ranging from 1 to 4 μg/ml) or SCVs (MIC for gentamicin ranging from 4 to 8 μg/ml). […] From these time-kill experiments, isolated colonies obtained from cultures exposed to gentamicin combined or not with 8 μg/ml tomatidine were analyzed for their susceptibility to gentamicin. When ATCC 29213 was exposed to gentamicin alone, the emergence of numerous normal-growing isolates showing decreased susceptibility to gentamicin (MIC ranging from 1 to 4 mg/L) was easily detected.

For experiment [2], the system named is S. aureus SCV strain CF6A-S. Briefly: microbe, parasite or virus in culture. The class given is cell-based. The conditions noted are these: Staphylococcus aureus.
For experiment [3], the system named is S. saprophyticus ATCC 15305. As to the kind of experiment: MIC, microdilution, with or without tomatidine. Conditions: for MIC: Staphylococcus saprophyticus. (In general: Dilution methods test growth across graded concentrations, often in twofold steps.)
In experiment [4] the test system is S. aureus ATCC 29213 in co-culture with P. aeruginosa PA14. As to the kind of experiment: Viability in co-culture with P. aeruginosa PA14, CAMHB. The class given is cell-based, Staphylococcus aureus. The conditions noted are these: for Viability of S. aureus: SA + PA + TO at 8 μg/ml. An excerpt:
(§1) Bacteria were sampled, serially diluted and plated on tryptic soy agar for CFU determinations. […] Mannitol-salt agar plates were used to selectively evaluate S. aureus CFU when in co-culture with P. aeruginosa.

In experiment [5] the test system is normal S. aureus strain CF07-L. As to the kind of experiment: Broth growth with HQNO and/or tomatidine, visually evaluated (FIG. 2). The conditions noted are these: combination of HQNO (20 μg/ml) and tomatidine (8 μg/ml), 48 h. The class given is cell-based, Staphylococcus aureus. The procedure: The MICs of tomatidine, tomatine and control antibiotics (gentamicin, vancomycin, erythromycin, ciprofloxacin and oxacillin) were determined against the normal strains ATCC 29213 and CF07-L as well as against the SCV strain CF07-S in the presence of 20 μg HQNO/ml.

Another experiment concerns S. aureus SCV CF6A-S. Briefly: microbe, parasite or virus in culture. The class given is cell-based. Conditions: Staphylococcus aureus, SCVCF6AS; Tomatidine (50 μg); thymidine auxotrophy; 24 hours at 37° C. with O2; DMSO control 0; read-out: Diameter of inhibition zone.
A further experiment concerns SCV CF07-S. As to the kind of experiment: Tomatidine susceptibility with supplemental menadione, spotted on agar (FIG. 1A). The class given is cell-based, Staphylococcus aureus. The conditions noted are these: in the presence of supplemental menadione. The procedure: Normal (Newbould, CF07-L and CF1A-L), and SCV (NewbouldΔhemB (in the presence and absence of hemin), CF07-S (in the presence and absence of menadione) and CF1D-S) S. aureus strains were treated with various concentrations of tomatidine (4, 2, 1, 0.5, 0.25, 0.12 and 0.06 μg/ml) for 48 h in the Brain Hearth Infusion (BHI) medium at 35° C. and 10 μl samples were thereafter spotted on agar plated which were further incubated for 48 h before a picture was taken.

The test system of experiment [6] is S. aureus ATCC 29213 alone. As to the kind of experiment: Viability in mono-culture, CAMHB. The class given is cell-based, Staphylococcus aureus. The conditions noted are these: SA alone + TO at 8 μg/ml.
From the text: as §1

The next experiment relates to normal CF07-L strain. Briefly: Time-kill experiment (FIG. 1B). The class given is cell-based, Staphylococcus aureus. Conditions: tomatidine 16 μg/ml. The method, then: (§2) (225 RPM), bacteria were sampled, serially diluted and plated on tryptic soy agar (TSA) for colony-forming unit (CFU) determinations (i.e., viable bacterial counts). Plates were incubated for 24 or 48 h at 35° C. for normal and SCV strains, respectively. The antibacterial activities of tomatidine and control antibiotics (erythromycin (a bacteriostatic macrolide) and ciprofloxacin (a bactericidal fluoroquinolone) against the normal CF07-L strain and the SCV CF07-S as a function of time are presented in FIGS. 1B and 1C, respectively. The antibacterial activity of tomatine against the SCV strain was also evaluated (TN in FIG. 1C).

In experiment [7] the test system is S. aureus SCVs (NewbouldΔhemB, CF07-S and CF1D-S). Briefly: MIC, microdilution in BHI 48 h, summary for SCVs. The class given is cell-based, Staphylococcus aureus. The conditions noted are these: Staphylococcus aureus, read-out: MIC against all SCVs.
In experiment [8] the test system is SCV strain CF07-S in shCFTR cells. As to the kind of experiment: Intracellular infection of polarized CF airway epithelial cells (shCFTR). The class given is cell-based, Staphylococcus aureus. The conditions noted are these: 1.25 and 12.5 μg/ml of tomatidine; 48 h post-internalization; FIG. 4B.
Experiment [9] has as its system protein, DNA, RNA and cell wall peptidoglycan biosynthesis in ATCC 29213. Briefly: Macromolecular biosynthesis assay, incorporation of radiolabeled precursors. The class given is cell-based, Staphylococcus aureus.
The test system of a further experiment is SCV strain CF07-S. As to the kind of experiment: Time-kill experiment (FIG. 1C). The class given is cell-based, Staphylococcus aureus. The conditions noted are these: tomatidine at 0.25 μg/ml (2×MIC). The procedure:
as §2

Experiment [10] relates to Bacillus cereus ATCC 11778. Briefly: Agar diffusion method, zone of inhibition. The class given is cell-based. Conditions: ATCC11778, Tomatidine (35 μg), 24 hours at 35° C., DMSO 0, read-out: Diameter of inhibition zone. The method, then: (§3) The effect of tomatidine on the growth of Bacillus subtilis strains ATCC 6633 and ATCC 9372, Bacillus cereus strain ATCC 11778 and Listeria monocytogenes strain ATCC 13932 was tested by an agar diffusion method. Bacillus spp. strains and Listeria monocytogenes were spread on the surface of Mueller-Hinton agar and Mueller-Hinton supplemented with 5% sheep blood, respectively. 35 μg of tomatidine diluted in DMSO or DMSO alone were added to wells for diffusion and plates were incubated for 24 hours at 35° C. The diameters of the zones of inhibition around the wells (for the DMSO control and for the tomatidine well) were measured and reported in mm in TABLE 12 below.
(In general: Agar diffusion results depend on both activity and mobility in agar.)

Experiment [11] relates to Bacillus subtilis ATCC 9372. As to the kind of experiment: Agar diffusion method, zone of inhibition. The class given is cell-based. The conditions noted are these: ATCC9372, Tomatidine (35 μg), 24 hours at 35° C., DMSO 0, read-out: Diameter of inhibition zone. The method, then: as §3
Experiment [12] concerns Bacillus subtilis ATCC 6633. Briefly: Agar diffusion method, zone of inhibition. The class given is cell-based. The conditions noted are these: ATCC6633, Tomatidine (35 μg), 24 hours at 35° C., DMSO 5, read-out: Diameter of inhibition zone. The procedure: as §3
For experiment [13], the system named is Listeria monocytogenes ATCC 13932. As to the kind of experiment: Agar diffusion method, zone of inhibition. The class given is cell-based. Conditions: ATCC13932, Tomatidine (35 μg), 24 hours at 35° C., 5% sheep blood, DMSO 0, read-out: Diameter of inhibition zone. The procedure: as §3
The mark [14] stands for this setting: colonies from 24 h-cultures exposed to gentamicin.

What is called zone of inhibition is the extent of the growth-free halo in a diffusion test.

Values after ≈ are worked out from the molar mass of the structure shown. Like-named read-outs stand apart in the source and are kept apart here. Marks after values point to notes of the source that are not given here.

As to gentamicin, in experiment [1] (ATCC 29213 exposed to gentamicin alone), the “MIC of normal-growing isolates showing decreased susceptibility to gentamicin” value was 1 to 4 µg/mL. In addition, in experiment [1] (setting [14]), the “MIC for gentamicin of SCVs” value was in the range of 4 to 8 µg/mL and the “MIC for gentamicin of normal-growing bacteria with decreased susceptibility” value is 1 to 4 µg/mL.
As to `NC[C@H]1O[C@H](O[C@H]2[C@H](O)[C@@H](O[C@H]3O[C@H](CO)[C@@H](O)[C@H](N)[C@H]3O)[C@H](N)C[C@@H]2N)[C@H](N)C[C@@H]1O` [Tobramycin, tobramycin], the MIC is over 32 µg/mL in [2]; 0.016 µg/mL (≈ 0.0342 µM) in [3] (ATCC15305, read-out: MIC +TO); 0.12 µg/mL (≈ 0.257 µM) in experiment [3] (ATCC15305, read-out: MIC −TO). Further, the “Fold (−TO/+TO)” value in [3] (S. saprophyticus ATCC 15305, 8 μg/ml of tomatidine) amounted to 8 fold.
For `C[C@H]1CC[C@]2(NC1)O[C@H]1C[C@H]3[C@@H]4CC[C@H]5C[C@@H](O)CC[C@]5(C)[C@H]4CC[C@]3(C)[C@H]1[C@@H]2C` [Tomatidine, tomatidine], the “Viability of S. aureus” value is 5.4 ± 0.1 Log10 CFU/ml in experiment [4] (0 h), 2 ± 1 ^b Log10 CFU/ml in [4] (24 h), 5.1 ± 0.4 Log10 CFU/ml in experiment [6] (0 h) and 9.64 ± 0.08 Log10 CFU/ml in experiment [6] (24 h). In experiment [4] (in co-culture with P. aeruginosa, tomatidine 8 μg/ml), the “type of antibacterial effect” value is “bactericidal”. Moreover, the “growth, visually evaluated” value in experiment [5] was “inhibitory activity”. In addition, in the experiment with S. aureus SCV CF6A-S, the zone of inhibition at 50 µg/disc was found to be 23 mm. Further, the susceptibility to tomatidine entry in the experiment on SCV CF07-S was “abolished”. In addition, the “time-kill effect on growth” value in the experiment on normal CF07-L strain is “does not affect the growth”. The MIC in [7] is 0.12 µg/mL (≈ 0.289 µM). Further, the “intracellular SCVs CF07-S vs DMSO-treated control cells” value in [8] is listed as “significantly less”. Also, the biosynthesis of macromolecules result in experiment [9] (in the presence of 20 μg HQNO/ml, all tested concentrations above 0.12 μg/ml, FIG. 3C) is recorded as “decreased the biosynthesis of all macromolecules”. Moreover, the synthesis of macromolecules entry in experiment [9] (tomatidine up to 125 μg/ml, no HQNO, vs DMSO-treated control, FIG. 3B) is on record as “did not alter the synthesis of any macromolecule”. Besides, the “time-kill effect on growth and viability” value with SCV strain CF07-S is reported as “induced bacteriostasis”. The zone of inhibition at 35 µg/disc in experiment [10] was 21.5 mm; in experiment [11] it was 25.5 mm; in [12] it was 25.5 mm; in experiment [13], 12.5 mm.
